Measured values from patent US12497460B2, “Anti-MSR1 antibodies and methods of use thereof” (REGENERON PHARMACEUTICALS, INC., priority 2018, dated 2025).
Where a name gives a salt, the structure may show the parent alone.

These compounds were tested on LXR (THP1/LXR-Luc cells) (assay: LXR-luciferase reporter bioassay (Example 31)). Settings: signal to noise, ratio of RLU of standard one over standard eight; 48 hours.
Format: cell-based, human
Description: Generation of assay cell line. To test the efficacy of anti-MSR1 antibody-LXR conjugates in vitro, a cell-based LXR responsive luciferase reporter assay was developed. To generate the assay cell line, a LXR regulated luciferase reporter gene [Cignal Lenti LXR Reporter (luc) kit (Qiagen, Cat #CLS-001 L)] was transduced into THP1 cells, and cells were selected for two weeks in puromycin. The lentivirus expresses the firefly luciferase gene under the control of a minimal CMV promoter and tandem repeats of the LXR transcriptional response element. The resulting cell line is referred to as THP1/LXR-Luc cells.
Assay protocol. THP1/LXR-Luc cells were seeded onto 96 well plates at 40,000 cells/well in media containing RPMI supplemented with 10% FBS and pencillin/streptomycin and subsequently differentiated with 200 nM Phorbol Myristate Acetate (PMA) for 3 days. After the 3-day differentiation period, three-fold serial dilutions of antibody drug conjugates, unconjugated antibodies, or free payloads in fresh media were added to the cells at final concentration ranging from 100 nM to 0.01 nM. Media alone served as a blank control. Forty-eight hours later, luciferase activity was determined after the addition of One-Glo™ reagent (Promega, Cat #E6130) to each well. Relative light units (RLUs) were measured on a Victor luminometer (PerkinElmer) and EC50 values were determined using a four-parameter logistic equation over a 10-point dose response curve (GraphPad Prism). The signal to noise (S/N) was determined by calculating the ratio of RLU of standard one over RLU of standard eight for each of the unconjugated anti-MSR1 antibodies or free payloads. “LP #” represents a linker-payload for which the corresponding structures are provided elsewhere herein, and “P #” represents a payload for which the corresponding structures are provided elsewhere herein.
Work on `C[C@]1(C(=O)NC(=O)[C@@]2(C)CCC[C@]3(C)c4cc(NC(=O)[C@@H](N)CCCCN)ccc4CC[C@@H]23)CCC[C@]2(C)c3cc(O)ccc3CC[C@@H]12` [P7, (1S,4aS,10aR)-N-[(1S,4aS,10aR)-6-Hydroxy-1,4a-dimethyl-1,2,3,4,4a,9,10,10a-octahydrophenanthrene-1-carbonyl]-6-[(2S)-2,6-diaminohexanamido]-1,4a-dimethyl-1,2,3,4,4a,9,10,10a-octahydrophenanthrene-1-carboxamide; trifluoroacetic acid salt] yielded a S/N of 8.9.
With `C[C@]1(C(=O)NC(=O)[C@@]2(C)CCC[C@]3(C)c4cc(NC(=O)[C@@H](N)CCC(=O)O)ccc4CC[C@@H]23)CCC[C@]2(C)c3cc(O)ccc3CC[C@@H]12` [P6, (4S)-4-Amino-4-{[(4bS,8S,8aR)-8-{[(1S,4aS,10aR)-6-hydroxy-1,4a-dimethyl-1,2,3,4,4a,9,10,10a-octahydrophenanthrene-1-carbonyl]carbamoyl}-4b,8-dimethyl-4b,5,6,7,8,8a,9,10-octahydrophenanthren-3-yl]carbamoyl}butanoic acid; trifluoroacetic acid salt] the S/N was 8.3.
`C[C@]1(C(=O)NC(=O)[C@@]2(C)CCC[C@]3(C)c4cc(NC(=O)[C@@H](N)CO)ccc4CC[C@@H]23)CCC[C@]2(C)c3cc(O)ccc3CC[C@@H]12` [P5, (1S,4aS,10aR)-6-((S)-2-Amino-3-hydroxypropanamido)-N-((1S,4aS,10aR)-6-hydroxy-1,4a-dimethyl-1,2,3,4,4a,9,10,10a-octahydrophenanthrene-1-carbonyl)-1,4a-dimethyl-1,2,3,4,4a,9,10,10a-octahydrophenanthrene-1-carboxamide] gave a S/N of 5.7.
